The record followed here is article PMC12715794, “Comparative Characterization of Oxidative Enzymes for Arabinoxylan and Protein Cross-Linking via Ferulic Acid and Tyrosine in Model Systems” (Journal of Agricultural and Food Chemistry, 2025).

Experiment [1] relates to T1, TvL; laccase from Trametes versicolor.
T1 construct: gene LCC2
The following applies: at pH and temperature optima; McIlvaine buffer.

For experiment [2], the target named is T2, AnG; glucose oxidase from Aspergillus niger (Aspergillus niger, UniProt P13006).
T2 construct: gene gox
T2 sequence (P13006 23-605): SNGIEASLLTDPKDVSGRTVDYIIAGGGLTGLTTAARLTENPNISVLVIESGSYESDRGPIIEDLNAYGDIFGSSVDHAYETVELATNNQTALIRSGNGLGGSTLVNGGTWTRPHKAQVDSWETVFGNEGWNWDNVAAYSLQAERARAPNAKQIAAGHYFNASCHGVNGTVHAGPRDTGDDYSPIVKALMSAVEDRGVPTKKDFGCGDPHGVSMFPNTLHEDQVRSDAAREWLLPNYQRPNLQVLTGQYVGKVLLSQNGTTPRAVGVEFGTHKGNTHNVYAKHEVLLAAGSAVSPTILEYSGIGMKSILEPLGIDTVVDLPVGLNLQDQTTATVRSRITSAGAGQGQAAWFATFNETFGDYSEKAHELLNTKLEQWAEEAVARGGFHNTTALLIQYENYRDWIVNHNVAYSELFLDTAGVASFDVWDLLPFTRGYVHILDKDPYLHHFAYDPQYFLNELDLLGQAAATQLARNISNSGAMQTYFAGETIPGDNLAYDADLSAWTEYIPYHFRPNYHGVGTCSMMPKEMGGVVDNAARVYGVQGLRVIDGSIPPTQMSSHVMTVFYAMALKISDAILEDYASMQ
In words: ABTS-HrP-coupled spectrophotometric assay, […] nm. It is filed as biochemical. To be noted: 16 mM glucose, 1 mM ABTS, excess HrP (0.7 mg/mL); McIlvaine buffer.

Experiment [3] relates to T1, TvL; laccase from Trametes versicolor. The following applies: at pH and temperature optima; McIlvaine buffer; enzyme alone.
Experiment [4] has the same test system. The experiment in a line: HTyr-MBTH spectrophotometric assay, […] nm. It counts as biochemical. The following applies: at pH and temperature optima; McIlvaine buffer; excess MBTH, 2% DMF.
In experiment [5] the test system is T3, AbT; tyrosinase from Agaricus bisporus.
T3 construct: gene PPO3
In words: HTyr-MBTH spectrophotometric assay, […] nm. It is filed as biochemical. The following applies: at pH and temperature optima; McIlvaine buffer; excess MBTH, 2% DMF.

Experiment [6] shares this test system. The experiment in a line: spectrophotometric, product formation at […] nm. To be noted: at pH and temperature optima; McIlvaine buffer; enzyme alone. It is filed as biochemical.

Molecules are shown by their SMILES. Structures can show the parent of a compound that is named as a salt. Where two headings read alike, the source gives them in different places.

`CCn1c(=NN=c2sc3cc(S(=O)(=O)O)ccc3n2CC)sc2cc(S(=O)(=O)O)ccc21` [ABTS, 2,2′-azino-bis(3-ethylbenzothiazoline-6-sulfonic acid) diammonium salt]: in experiment [1], the Km is 36 µM.

Regarding `OC[C@H]1OC(O)[C@H](O)[C@@H](O)[C@@H]1O` (stereo partly drawn) [D-glucose], the “ABTS-HrP-coupled spectrophotometric assay, 415 nm” value in experiment [2] was “For AnG, glucose as a substrate was converted to H2O2”.

Regarding `COc1cc(/C=C/C(=O)O)ccc1O` [FA, trans-ferulic acid], in experiment [3], the Michaelis constant (Km) was determined as 57 µM.

Turning to `OCCc1ccc(O)c(O)c1` [HTyr, hydroxytyrosol], the results for the Michaelis-Menten constant (Km) in experiment [4] and in experiment [5] were 73 µM and 44 µM, respectively.

With `N[C@@H](Cc1ccc(O)cc1)C(=O)O` [Y, L-tyrosine], the Km in experiment [6] is 504 µM.
